Test results reported in patent publication US4792554A, “Pyridine compounds, pharaceutical compositions, their use in allergy therapy” (priority 1985, dated 1988).

Key:
leukotriene D4 = test: Inhibition of leukotriene D4-induced spasm in isolated guinea pig trachea; conditions: leukotriene D4 10 pg/ml
[1] = Normal weight gain of rats in a subchronic 14-day experiment; format: in vivo, rat; conditions: high oral doses
Source text: Finally, the compound of Example 3 had no effect, even at high oral doses, on the normal weight gain of rats in a subchronic 14-day experiment. It is evident from this that the compounds of the formula I have no appetite-stimulating action in contrast to many other antihistamines.

bradykinin = test: Antagonistic action towards bradykinin: inhibition of bradykinin-induced bronchospasm in anesthetized guinea pigs (Konzett-Rössler); format: in vivo, guinea pig; conditions: Cavia porcellus, iv, anesthetized guinea pigs, dose reducing induced spasm to one half; read-out: Inhibitory action towards bradykinin (ED50)
Experimental: (§1) 1. Antagonistic action towards the allergy mediators (on anesthetized guinea pigs)
(§2) The test substances were administered intravenously in aqueous solution injected in a volume of 1 ml/kg.

[2] = Acute toxicity, mortality within 7 days after single i.p. administration to NMRI mice; conditions: in vivo, ip, mouse i.p.
Experimental: The LD50 values were determined by the standard method of the mortality occurring within 7 days after a single intraperitoneal (i.p.) administration to NMRI mice (NMRI=Naval Medical Research Institute).

mast cells = test: Passive cutaneous anaphylaxis (PCA) in the rat, inhibition of mediator release (protective effect on mast cells); format: in vivo; conditions: Mast cell
Source text: (a) Passive cutaneous anaphylaxis (PCA) in the rat (PCA test) Passive cutaneous anaphylaxis is an IgE-mediated allergy of the immediate type (type I). In this model, antibodies bound to mast cells and basophilic granulocytes react with an intravenously administered antigen with release of excessive amount of the allergy mediators. The histamine which is released during this can be visualized by simultaneous application of Evans blue to the shaven flanks of the rats. Photometric evaluation of the color intensity was used to determine, by means of the percentage inhibition of mediator release compared with untreated control animals, the protective effect on mast cells of the compound according to the invention after oral administration.

[3] = system: platelet activating factor (PAF); test: Antagonism of PAF-induced bronchospasm in anesthetized rats; format: in vivo, rat; conditions: Rattus norvegicus, Platelet; intravenous, anesthetized rats
Experimental: (§3) The compounds of the formula I and their salts additionally show a pronounced inhibitory action on platelet activating factor (PAF) and the leukotrienes, which are likewise released as spasmogenic mediators from the mast cells during the course of the immediate anaphylactic reaction. It was possible to antagonize the bronchospasm induced in anesthetized rats by administration of PAF by, for example, intravenous administration of the compound of Example 3 with a ED50 of 1-3 mg/kg. The said products of the state of the art, such as oxatomide, ketotiphen and terfenadine, have no action in this test. The contractions induced by calcium ionophore A 23 187 in isolated strips of lung and the isolated trachea of guinea pigs were inhibited by, for example, the compound of Example 3 with an IC50 of 0.1-0.3 μg/ml. Since calcium ionophore A 23 187 stimulates 5-lipoxygenase and thus promotes the formation of spasmogenic leukotrienes, a possible interpretation of the result of this experiment is that the compounds according to the invention are potent leukotriene inhibitors.

histamine = test: Antagonistic action towards histamine: inhibition of histamine-induced bronchospasm in anesthetized guinea pigs (Konzett-Rössler); format: in vivo, guinea pig; conditions: Cavia porcellus, iv, anesthetized guinea pigs, dose reducing induced spasm to one half; read-out: Inhibitory action towards histamine (ED50)
Experimental: as §1, §2

[4] = system: isolated strips of lung and the isolated trachea of guinea pigs; test: Inhibition of contractions induced by calcium ionophore A 23 187 in isolated strips of lung and isolated trachea of guinea pigs; conditions: guinea pig
Experimental: as §3

[5] = system: rat peritoneal mast cells; test: Histamine release from isolated rat mast cells induced by calcium ionophore A 23 187; format: cell-based; conditions: Mast cell, 0.25 h, 15 min incubation, A 23 187 10^-6 g/ml, read-out: Inhibitory action in the Ca ionophore test IC50
Experimental: (b) Histamine release from isolated rat mast celss induced by calcium ionophore A 23 187 […] […] For this purpose, 10^4 cells were suspended in Clicks/RPMI (50:50, vol.; supplied by Serva, Heidelberg) tissue culture medium, incubated with the test substance for 15 minutes, and then treated with calcium ionophore A 23 187 at a concentration of 10^-6 g/ml. The released histamine was determined by high-pressure liquid chromatography (HPLC). The measure used for the inhibitory action was the IC50 which represents the molar concentration (mol/l) at which the induced histamine release was decreased to one half that of cells which had not been pretreated with a product. In this context, IC50 values above 10^-5 mol/l are regarded as therapeutically irrelevant.

[6] = system: airway obstruction induced by histamine aerosol; test: Plethysmographic investigation on conscious guinea pigs with airway obstruction induced by inhalation of histamine aerosol; format: in vivo, guinea pig; conditions: oral, 0.3% strength histamine aerosol
[7] = system: asthma induced by histamine; test: Inhibition by inhalation of allergic asthma induced by histamine in conscious guinea pigs; format: in vivo, guinea pig; conditions: 0.3% strength aerosol

For `Cc1cc(NCCN2CCN(C(c3ccccc3)c3ccccc3)CC2)c([N+](=O)[O-])c(C)n1.Cl.Cl.Cl` [Example 3, 2,6-dimethyl-3-nitro-4-[(2-{4-diphenylmethyl-1-piperazinyl}ethyl)amino]pyridine trihydrochloride], the “concentration inhibiting leukotriene D4-induced spasm by 50%” value (leukotriene D4) was 3 to 6 µg/mL, the “effect on normal weight gain” value [1] was “no effect” and the ED50 (bradykinin) was 0.15 mg/kg. The LD50 at 168 h [2] was 300 to 600 mg/kg, the inhibition in vivo at 12.5 mg/kg (mast cells; oral dose 12.5 mg/kg) was 26% and the inhibition in vivo at 25 mg/kg (mast cells; oral dose 25 mg/kg) was 61%. It also gave an inhibition in vivo at 50 mg/kg (mast cells; oral dose 50 mg/kg) of 85%, an ED50 [3] of 1 to 3 mg/kg and an ED50 (histamine) of 0.3 mg/kg. For the same compound, the “IC50, contractions induced by calcium ionophore A 23 187” value [4] was 0.1 to 0.3 µg/mL, the IC50 [5] was 10 nM and the ED50 ([6]; Cavia porcellus) was 3.15 mg/kg. For the same compound, the “time after administration to maximum effect” value [6] was 30 min and the “suppression of experimentally induced asthma attacks” value [7] was “substantial suppression”.
